Test results as given in patent US11819526B2, “Lactobacillus Gasseri KBL697 strain and use thereof” (KoBioLabs, Inc., priority 2018, dated 2023).

Columns and labels:
RBL-2H3 cell line = test: Degranulation (β-hexosaminidase, co-secreted with histamine) in RBL-2H3 cells; format: cell-based; settings: RBL-2H3, IgE + antigen DNP-HAS; 120 μL bacterial culture supernatant or ketotifen 20 μg/mL; negative control (Siraganian buffer) = 1.0
Source text: It has been reported that, in an allergic reaction, histamine is expressed in tissues, causing an inflammatory reaction, and suppressing histamine secretion leads to alleviation of allergic symptoms by blocking the reaction by histamine. In the present invention, the alleviation of allergic reactions and the therapeutic effect thereon through inhibition of histamine secretion by KBL697 were further confirmed. Further, in order to confirm whether the effect for treating and preventing chronic allergies identified in Example 1 is an inherent attribute of Lactobacillus gasseri, or is a remarkable effect particularly in KBL697 among Lactobacillus gasseri, the ability to suppress histamine secretion was evaluated also for nine additional Lactobacillus gasseri strains in addition to KBL697. […]
To identify the activity of β-hexosaminidase, 25 μL of the supernatant collected in Example 2-3 was transferred to each well of a 96-well plate, and then 25 μL of substrate (p-nitrophenyl N-acetyl-D-glucosaminidase) was added to each, and followed by a reaction at 37° C. in the 5% CO2 incubator for 90 minutes. Then, 200 μL of stop solution (Na2CO3/NaHCO3) was added to stop the reaction and then absorbance was measured at 405 nm. […]

[1] = system: C57BL6 mice with DSS-induced colitis; test: DSS-induced colitis in C57BL6 mice, KBL697 with or without infliximab; format: in vivo, mouse; settings: administered alone
Source text: Infliximab (product name Remicade) is a therapeutic recombinant antibody drug used as an injection for autoimmune diseases such as rheumatoid arthritis, ankylosing spondylitis, ulcerative colitis, Crohn's disease in adults, Crohn's disease in children, psoriasis, and psoriatic arthritis. The purpose of this study was to confirm the effect of improving intestinal disease symptoms in vivo in the case of concurrent administration of KBL697 and infliximab.
After dividing C57BL6 mice into groups of eight mice, the mice were fed tap water with 2% DSS dissolved therein for 8 days (D0 to D7), inducing colitis. At the same time, 200 μL of PBS was orally administered to the mice in the control group for 14 days (D0 to D13) daily, while 200 μL of the KBL697 strain diluted in PBS to 1×10^10 CFU/mL was orally administered to the mice in the group dosed with KBL697 so that the amount of daily administration could be set at 2×10^9 CFU. […] During the 14 days in which colitis was induced by DSS, the body weight changes of the mice in the control group and each test group were measured daily, and on the 14th day after DSS was supplied (D14), mice were subjected to autopsies to measure the length of the colon.

## CN1CCC(=C2c3ccccc3CC(=O)c3sccc32)CC1 [Ketotifen, ketotifen]
RBL-2H3 cell line
  β-hexosaminidase (fold change): 0.3861 fold change

## infliximab: therapeutic recombinant antibody drug (product name Remicade)
[1]; 2% DSS 8 days, KBL697 2×10^9 CFU oral daily, infliximab 5 mg/kg, D14, FIGS. 18A, 18B
  width of decrease in the colon length compared to control group (DSS+PBS): significantly improved
[1]; 2% DSS, when 14 days elapsed after the administration
  effect on body weight decrease compared to control group: significantly improved
